The target in one experiment is T1, BaF3-FLT3-ITD-F691L (Homo sapiens, UniProt P36888, INS600HVDFREYEYD/F691L, cells depend on it).
T1 sequence (P36888 with tags, fused parts or gaps INS600HVDFREYEYD/F691L): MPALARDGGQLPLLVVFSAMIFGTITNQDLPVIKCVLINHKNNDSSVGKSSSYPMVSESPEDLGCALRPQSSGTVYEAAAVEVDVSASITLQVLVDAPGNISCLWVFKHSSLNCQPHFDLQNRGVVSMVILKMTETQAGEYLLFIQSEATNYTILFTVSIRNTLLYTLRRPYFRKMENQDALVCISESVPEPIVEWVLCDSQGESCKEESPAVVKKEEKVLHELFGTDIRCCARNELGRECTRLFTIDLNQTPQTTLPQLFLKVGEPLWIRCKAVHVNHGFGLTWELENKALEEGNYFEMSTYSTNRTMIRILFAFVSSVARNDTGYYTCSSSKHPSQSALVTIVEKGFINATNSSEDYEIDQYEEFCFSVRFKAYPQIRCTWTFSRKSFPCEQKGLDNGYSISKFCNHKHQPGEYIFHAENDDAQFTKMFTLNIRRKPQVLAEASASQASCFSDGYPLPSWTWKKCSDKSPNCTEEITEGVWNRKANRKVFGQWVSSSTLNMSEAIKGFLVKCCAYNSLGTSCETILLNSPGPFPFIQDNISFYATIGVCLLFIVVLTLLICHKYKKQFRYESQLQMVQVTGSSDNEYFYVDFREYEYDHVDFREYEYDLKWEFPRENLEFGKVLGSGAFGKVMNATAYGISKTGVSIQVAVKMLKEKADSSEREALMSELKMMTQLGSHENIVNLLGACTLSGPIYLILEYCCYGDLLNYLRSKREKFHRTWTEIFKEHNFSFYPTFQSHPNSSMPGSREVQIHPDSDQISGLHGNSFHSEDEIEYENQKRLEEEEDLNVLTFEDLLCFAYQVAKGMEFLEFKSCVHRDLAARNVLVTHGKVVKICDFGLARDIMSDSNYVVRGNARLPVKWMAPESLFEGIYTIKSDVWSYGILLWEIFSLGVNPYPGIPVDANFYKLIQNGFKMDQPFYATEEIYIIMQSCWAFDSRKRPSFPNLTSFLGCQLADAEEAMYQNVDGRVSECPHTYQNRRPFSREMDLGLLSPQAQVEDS
The experiment is described as follows: CTB viability assay CS0047, BaF3-FLT3-ITD-F691L. The experiment is classed as cell-based, murine. As to conditions: BaF3-FLT3-ITD-F691L cells, CellTiter Blue viability, 72 hours; read-out: Cell Assay: CS0047:BaF3-FLT3-ITD-F691L CTB:IC50. From the text: (§1) Gene constructs containing the human FLT3 sequences FLT3-ITD, FLT3-ITD-F691L, FLT3-ITD-D835V and FLT3-D835V were synthesized by reverse translation of the human protein sequences, with codons optimized for mammalian expression. Sequence of the internal tandem duplication (ITD) was based on the MV4-11 ITD sequence. Synthetic DNA constructs were cloned into the pMSCV puro retroviral vector (Clontech) and transfected into the EcoPack2-293 packaging cell line (Clontech) to generate retroviruses that contain the different FLT3 constructs. Viruses were transduced into the IL-3-dependent, murine […] cell line, Ba/F3, and selected for puromycin resistance and IL-3 independence. All cell lines were cloned by limiting dilution and clones were used for all subsequent cell assays. Overexpression of the FLT3 mutants in the Ba/F3 cells results in constitutive phosphorylation of the exogenous FLT3 protein, which is required for IL-3 independence.
(§2) Cell lines were serum starved overnight in media containing 0.5% FBS, plated at 15,000 cells/well in 96-well white-walled tissue culture plates, and 3-fold serial dilutions of test compounds of Formula I were added for 72 hours at 37° C. CellTiter Blue (CTB, Promega) was added and incubated for an additional 3 hours at 37° C. Fluorescence was read at 560 nm excitation, 590 nm emission. Wells with CTB+media only were used for background subtraction, and the fluorescence of compound-treated cells was normalized to the fluorescence of DMSO-treated cells. IC50s were determined using Igor Pro software. All compounds are assayed in duplicate cell plates.
(Resazurin is reduced to fluorescent resorufin, in cell work by metabolically active cells.)

In another experiment the target is T2, BaF3-FLT3-ITD-D835V (Homo sapiens, UniProt P36888, INS600HVDFREYEYD/D835V, cells depend on it).
T2 sequence (P36888 with tags, fused parts or gaps INS600HVDFREYEYD/D835V): T1 sequence (P36888 with tags, fused parts or gaps INS600HVDFREYEYD/F691L) with L701F, D845V
The experiment is described as follows: CTB viability assay CS0048, BaF3-FLT3-ITD-D835V. The experiment is classed as cell-based, murine. The following applies: BaF3-FLT3-ITD-D835V cells, CellTiter Blue viability, 72 hours; read-out: Cell Assay: CS0048: BaF3-FLT3-ITD-D835V CTB:IC50.
Excerpt: as §1, §2

Where a chain is given by its changes, count along the chain named.

In the case of `CCn1cncc1Nc1ncc(-c2ccc(CC(=O)Nc3cc(C4(C(F)(F)F)CC4)on3)c(F)c2)cn1` [P-147, 2-[4-[2-[(3-ethylimidazol-4-yl)amino]pyrimidin-5-yl]-2-fluoro-phenyl]-N-[5-[1-(trifluoromethyl)cyclopropyl]isoxazol-3-yl]acetamide], the GI50 on BaF3-FLT3-ITD-F691L lay within 0.01 to 0.05 µM; on BaF3-FLT3-ITD-D835V, 0.05 to 0.1 µM.
In the case of `COc1nn(C2CC2)cc1Nc1ncc(-c2ccc(CC(=O)Nc3cc(C4(C(F)(F)F)CC4)on3)c(F)c2)c(C)n1` [P-126, 2-[4-[2-[(1-cyclopropyl-3-methoxypyrazol-4-yl)amino]-4-methyl-pyrimidin-5-yl]-2-fluorophenyl]-N-[5-[1-(trifluoromethyl)cyclopropyl]isoxazol-3-yl]acetamide], the GI50 at BaF3-FLT3-ITD-F691L and at BaF3-FLT3-ITD-D835V was 0.01 to 0.05 µM in each case.
For the molecule `COc1nn(C(F)F)cc1Nc1ncc(-c2ccc(CC(=O)Nc3cc(C4(C(F)(F)F)CC4)on3)c(F)c2)c(C)n1` [P-144, 2-[4-[2-[[1-(difluoromethyl)-3-methoxypyrazol-4-yl]amino]-4-methyl-pyrimidin-5-yl]-2-fluorophenyl]-N-[5-[1-(trifluoromethyl)cyclopropyl]isoxazol-3-yl]acetamide], the GI50 on BaF3-FLT3-ITD-F691L was in the range of 0.01 to 0.05 µM; on BaF3-FLT3-ITD-D835V, 0.05 to 0.1 µM.
For `C=CC(=O)Nc1nn(C)cc1Nc1ncc(-c2ccc(CC(=O)Nc3cc(C4(C(F)(F)F)CC4)on3)c(F)c2)cn1` [P-125, N-[4-[[5-[3-fluoro-4-[2-oxo-2-[[5-[1-(trifluoromethyl)cyclopropyl]isoxazol-3-yl]amino]ethyl]phenyl]pyrimidin-2-yl]amino]-1-methyl-pyrazol-3-yl] prop-2-enamide] the same measures were 0.01 to 0.05 µM and 0.05 to 0.1 µM.
For `Cc1nc(Nc2cnn(C3CC3)c2C)ncc1-c1ccc(CC(=O)Nc2cc(C3(C(F)(F)F)CC3)on2)c(F)c1` [P-129, 2-[4-[2-[(1-cyclopropyl-5-methylpyrazol-4-yl)amino]-4-methyl-pyrimidin-5-yl]-2-fluorophenyl]-N-[5-[1-(trifluoromethyl)cyclopropyl]isoxazol-3-yl]acetamide] the same measures were 0.01 to 0.05 µM and 0.01 to 0.05 µM.
